{
  "source": "patent US6472145B2",
  "about": "“Method and composition for modulating amyloidosis” (priority 1998, dated 2002)",
  "key": {"K695 cells [1]": {"system": "K695 cells", "test": "Endosomal function: uptake of Tf-Tx and Tf-F labelled transferrin", "assay_type": "cell-based, Human", "details": "4 hrs; for impairment of endosomal function (decrease in Tf-Tx and Tf-F signals): baf A1 1 μM, NH4Cl 20 mM", "experimental": "(§1) Endosomal function was assessed by the fluorometric quantitation of the receptor-mediated uptake of both Texas Red and fluoroscein labelled transferrin (Molecular Probes, Eugene, Oreg.)(33-35). K695 cells were maintained as exposed to various treatments as mentioned with the exception that cells were plated at a density 200,000 cells/well in 24-well plates (Corning™). Twenty-four hours after plating, cells were exposed to various treatments in DMEM supplemented with sodium pyruvate (1 mM) and 10% fetal bovine serum. At the same time as drug exposures, both transferrin-Texas Red (Tf-Tx) and transferrin-fluoroscein (Tf-F) (10 μl/ml media of 5 mg/ml stocks in PBS) were added to each well and incubated for 4 hours at 37° C. Each well was then gently washed three times with warm media and uptake of fluorescent probes quantitated at 37° C. using a Cytofluor™ 2350 fluorometric plate reader (Millipore, Mississauga, ON). Quantitation of the non-pH-dependent Tf-Tx fluorescence and the pH-dependent Tf-F fluorescence was determined using excitation filters of 590 nm (bandwidth=20 nm); 485 nm (bandwidth=20 nm) and emission filters of 645 nm (bandwidth=40 nm); 530 nm (bandwidth=25 nm), respectively. Similarly, Lysosomal function was assayed by the uptake of the fluorescent probe, Lysosensor™ Yellow/Blue DND-160 (Molecular Probes, Eugene, Oreg.)(36). Assay of Lysosensor™ uptake was performed in an identical manner to that of the fluorescent labelled transferrin conjugates with the exception that the addition of 10 μl/ml media of Lysosensor™ was taken from a 1 mM stock solution in DMSO. Quantitation of the non-pH-dependent blue fluorescence and the pH-dependent yellow fluorescence was determined using an excitation filter of 360 nm (bandwidth=40 nm) and emission filters of 460 mn (bandwidth=40 nm) and 530 nm (bandwidth =25 nm), respectively. For all three probes examined, relative fluorescence was obtained from subtraction from sister wells which had not been exposed to fluorophores. […]"}, "[2]": {"system": "wild-type APP695 (K695 cells)", "details": "4 hours", "experimental": "(§2) Human embryonic kidney (HEK) 293 cells stably transfected with either wild-type APP695 (K695 cells) or APP carrying the AD-linked double “Swedish” mutation (K695sw cells)(30) were cultured in DMEM supplemented with sodium pyruvate (1 mM) and 10% fetal calf serum as previously described (31). Cells were plated at 1,000,000 cells per well in 35 mm^2 culture dishes (Corning™) 24 hours prior to drug exposure. Preceding the addition of drugs, cultures are washed once with warm PBS (37° C.) and then exposed to various treatments in DMEM supplemented with sodium pyruvate (1 mM). Cultures were then exposed to either control media, vehicle (0.05% ethanol), or varying concentrations of FCCP (5 μM, 500 nM, 50 nM). Either 30 minutes or 4 hours after the addition of drugs, the media was removed, the cultures washed once with ice-cold PBS, and then harvested in 100 μl of ice-cold lysis buffer containing 20 mM MOPS (pH 7.2), 5 mM EDTA, 0.01% NP-40, 75 mM β-glycerol phosphate, […], […], 50 mM phosphatase substrate, […], and 1 mg/ml each of leupeptin, aprotinin and pepstatin.\n(§3) To examine extracellular APP fragments, the media was retained and centrifuged at 4° C. for 10 min at 16,000 X g to remove cellular debris. Extracellular protein was then precipitated by 10% trichloroacetic acid as previously described (31). Subsequently, secreted APPsα was determined by 10% Tris-Glycine SDS-PAGE Western Blot analysis using the monoclonal antibody WO-2, generated against the first 16 amino acids of the N-terminal region of Aβ (32). Similarly, extracellular Aβ release was examined by 16% Tris-Tricine SDS-PAGE Western Blot analysis using the WO-2 antibody (32). For examination of intracellular APP fragments, cultures were harvested in ice-cold lysis buffer and then sonicated for 8 seconds on ice. Cellular protein levels were quantified using the BCA protein assay (Pierce, Rockford, Ill.) and 10 μg of cellular protein were then separated by either 10% Tris-Glycine or 16% Tris-Tricine SDS-PAGE. Intracellular C100 and total APP were quantitated, respectively, by 16% Tris-Tricine Western Blot analysis using the WO-2 antibody and 10% Tris-Glycine Western Blot analysis using an anti-APP N-terminal antibody (22C11, Boehringer Mannheim, Laval, QC). A diagram of the catabolic fragments of APP and the epitopes to which each antibody binds is depicted in FIG. 1. […] The wavy line represents the plasma membrane. The enzyme α-secretase (α-left) cleaves APP within the Aβ sequence (represented by the heavy line), resulting in release of the ectodomain fragment known as APPsα. The enzymes β and γ secretase (β, γ, right) sequentially cleave APP on either side of the Aβ sequence. β secretase cleavage results in the release of the ectodomain fragment known as APPsβ and production of the cellular fragment known as C100; following γ-secretase cleavage, extracellular Aβ is released. Probing the cellular fraction with antibody 22C11 identifies total cellular APP. Probing the cellular fraction with WO-2 identifies C100 (distinguished by molecular weight). Probing the extracellular fraction with WO-2 identifies both APPsα and Aβ (distinguished by molecular weight).\n(§4) Cellular (C100 and total APP) and extracellular (APPsα and Aβ ) APP catabolic fragments were separated using SDS PAGE with either 10% Tris-Glycine (for APPsα and total APP) or 16% Tris-Tricine (for C100 and Aβ) gels. Following electrophoretic separation, proteins were transferred to nitrocellulose membranes and probed with either the monoclonal antibody WO-2 to detect C100, APPsα and Aβ, or 22C11 to detect total cellular APP. Immunoreactive bands were visualized using ECL detection (Amersham, Oakville, ON) and analyzed by standard autoradiographic and densitometric techniques as described (31)."}, "[3]": {"system": "APP carrying the AD-linked double \"Swedish\" mutation (K695sw cells)", "details": "for Aβ release: FCCP 5 μM, 500 nM, 50 nM", "experimental": "as §2, §3, §4"}, "K695 cells [4]": {"system": "K695 cells", "test": "Lysosomal function: Lysosensor Yellow/Blue DND-160 uptake", "assay_type": "cell-based, Human", "details": "FCCP 5 μM and 500 nM, baf A1 1 μM, NH4Cl 20 mM, 4 hrs", "experimental": "as §1"}, "cellular ATP levels": {"system": "cellular ATP levels", "details": "30 μM FCCP for 2 hours; cited from earlier work"}, "[5]": {"system": "mitochondrial membrane potential", "details": "1 μM FCCP; cited from earlier work"}, "K695sw cells [6]": {"system": "K695sw cells", "test": "Quantification of cellular ATP levels (luciferase/luciferin)", "assay_type": "cell-based, Human", "details": "various concentrations, 30 minutes or 4 hours", "experimental": "20 μl aliqouts of ATP standards and samples were then assayed for ATP content using a luciferase/luciferin ATP determination kit (A-6608, Molecular Probes, Eugene, Oreg.). ATP-dependent luminescence was quantified using an Optocomp® II luminometer (MGM Instruments, Hamden, Conn.) and ATP levels were determined by extrapolation from a standard curve. […] As a positive control, the effect of combined treatment with various concentrations of sodium azide and 2-deoxy-D-glucose (NaA/DG) was also examined in these studies."}, "K695sw cells [7]": {"system": "K695sw cells", "details": "5 μM, 500 nM or 50 nM, 24 hours", "protocol": "Cell viability was quantified based on the exclusion of the membrane impermeant probe, YO-PRO (Molecular Probes, Eugene, Oreg.). K695sw cells were maintained and exposed to vehicle or various concentrations of FCCP as described above with the exception that cells were plated at a density of 20,000 cells/well in 96-well plates (Falcon®). Twenty-four hours after plating, cells were exposed to various treatments in DMEM supplemented with sodium pyruvate (1 mM) and 10% fetal bovine serum. At the same time as drug exposures, YO-PRO (4 μM) was added to each well and its uptake quantified every 30 minutes for 1 day at 37° C. using a Cytofluor™ 2350 fluorometric plate reader (Millipore, Mississauga, ON). As a positive control, all wells were exposed to 0.1% Triton X-100 at the end of the experiment."}, "APP": {"system": "APP", "details": "background; NH4Cl at high concentrations; cited from earlier work"}, "K695sw cells [8]": {"system": "K695sw cells", "details": "previous studies; cited from earlier work"}, "[9]": {"system": "cells expressing wild-type APP (K695 cells)", "details": "previous studies; cited from earlier work"}},
  "note": "Like-named read-outs stand apart in the source and are kept apart here.",
  "data": [
    {"compound": "N#CC(C#N)=NNc1ccc(OC(F)(F)F)cc1", "note": "[FCCP, carbonyl cyanide p-(trifluoromethoxy)phenylhydrazone]", "values": [
      {"measurement": "endosomal functioning (Tf-Tx and Tf-F signals)", "setting": "K695 cells [1]; FCCP 5 μM and 500 nM", "result": "did not significantly alter endosomal functioning"},
      {"measurement": "APPsα production", "setting": "[2]", "result": "marked concentration-dependent decrease in APPsα production"},
      {"measurement": "Aβ production", "setting": "[2]", "result": "clearly inhibited Aβ production in a concentration-dependent manner"},
      {"measurement": "maturation of APP", "setting": "[2]", "result": "unaffected"},
      {"measurement": "total levels of cellular APP", "setting": "[2]", "result": "unaffected"},
      {"measurement": "production of the ectodomain fragment APPsα (APPsα release)", "setting": "[3]; 30 min and 4 hours", "result": "only affected by 4 hour exposure to 5 μM FCCP"},
      {"measurement": "formation of the C100 fragment (cellular C100)", "setting": "[3]; 4 hours", "result": "concentration-dependent decrease in the formation of the C100 fragment"},
      {"measurement": "maturation of APP via N'/O' linked glycosylation", "setting": "[3]; 4 hours", "result": "neither total cellular levels of APP nor the maturation of APP via N′/O′ linked glycosylation were affected"},
      {"measurement": "total cellular levels of APP", "setting": "[3]; 4 hours", "result": "neither total cellular levels of APP nor the maturation of APP via N′/O′ linked glycosylation were affected"},
      {"measurement": "Aβ release", "setting": "[3]; 30 min", "result": "concentration-dependent decrease in Aβ release"},
      {"measurement": "Aβ release", "setting": "[3]; 4 hours", "result": "decreases in Aβ release were even more pronounced"},
      {"measurement": "lysosomal function (Lysosensor fluorescence)", "setting": "K695 cells [4]", "result": "reductions in lysosomal function, albeit not as profound"},
      {"measurement": "cellular ATP levels", "setting": "cellular ATP levels", "result": "sufficient to modestly decrease cellular ATP levels"},
      {"measurement": "mitochondrial membrane potential", "setting": "[5]", "result": "sufficient to alter mitochondrial membrane potential"},
      {"measurement": "cellular ATP levels", "setting": "K695sw cells [6]", "result": "did not alter cellular ATP levels at any of the concentrations or time points measured"},
      {"measurement": "cell death as measured by membrane exclusion (YO-PRO)", "setting": "K695sw cells [7]", "result": "no increase in cell death"}
    ]},
    {"compound": "Cl.N", "note": "[NH4Cl, ammonium chloride]", "values": [
      {"measurement": "impairment of endosomal function (decrease in Tf-Tx and Tf-F signals)", "setting": "K695 cells [1]", "result": "approximately 50%"},
      {"measurement": "APP proteolytic processing / APP catabolism", "setting": "APP", "result": "decrease APP proteolytic processing"},
      {"measurement": "lysosomal function (Lysosensor fluorescence)", "setting": "K695 cells [4]", "result": "profound reductions in lysosomal functioning"}
    ]},
    {"compound": "CO/C1=C\\C(C)=C\\[C@@H](C)[C@@H](O)[C@@H](C)C/C(C)=C/C=C/[C@H](OC)[C@@H]([C@@H](C)[C@@H](O)[C@H](C)[C@@]2(O)C[C@@H](O)[C@H](C)[C@@H](C(C)C)O2)OC1=O", "note": "[baf A1, bafilomycin A1]", "values": [
      {"measurement": "impairment of endosomal function (decrease in Tf-Tx and Tf-F signals)", "setting": "K695 cells [1]", "result": "approximately 50%"},
      {"measurement": "Aβ production", "setting": "K695sw cells [8]", "result": "reduced Aβ production"},
      {"measurement": "APP proteolytic processing / APP catabolism", "setting": "APP", "result": "alterations in APP catabolism which are both cell-type and APP mutation specific"},
      {"measurement": "lysosomal function (Lysosensor fluorescence)", "setting": "K695 cells [4]", "result": "profound reductions in lysosomal functioning"},
      {"measurement": "Aβ production", "setting": "[9]", "result": "lack of effect"}
    ]},
    {"compound": "CC[C@@]1([C@@H]2O[C@@H]([C@H]3O[C@@](O)(CO)[C@H](C)C[C@@H]3C)C[C@@H]2C)CC[C@H]([C@]2(C)CC[C@]3(C[C@H](O)[C@@H](C)[C@@H]([C@@H](C)[C@@H](OC)[C@H](C)C(=O)O)O3)O2)O1", "note": "[monensin]", "values": [
      {"measurement": "APP proteolytic processing / APP catabolism", "setting": "APP", "result": "decrease APP proteolytic processing"}
    ]}
  ]
}
